Patent US20240374692A1, “A NOVEL ACYLATED INSULIN ANALOG” (SUNSHINE LAKE PHARMA CO., LTD., priority 2021, published 2024)
Read-outs that look alike come from different tables or passages of the source.

Assays:
insulin receptor B = biological target: T1, insulin receptor B (Homo sapiens, UniProt P06213); assay: Insulin receptor B autophosphorylation in transfected cells (Cisbio Phospho-IR beta Tyr1150/1151 kit); assay type: cell-based; details: for Relative HI activity: relative to human insulin; for Relative 0% HSA activity: 1.5% HSA relative to 0% HSA
T1 construct: expressed in transfected cells
Procedure: The phosphorylation level of insulin receptor B was detected by Cisbio's Phospho-IR beta (Tyr1150/1151) kit method to evaluate the biological activity of insulin. The cells were seeded into a 96-well plate overnight, and after the serum in the medium was removed, 40 μl of serum-free medium was added to culture for about 4 h. Then a dilution series of insulin derivatives were prepared with blank solution (0.6% casein, 0.06 mg/mL EDTA, 1×DPBS) and incubated with cells in the 96-well plate for 5 min in a CO2 incubator (37° C., 5% CO2). The liquid in the 96-well plate was poured off, 100 µL of a mixture of lysis buffer (2% Triton X-100, 150 mM NaCl, 50 mM HEPES, pH=7) and inhibitor (Blocking Reagent in the kit) was added to lyse the cells, then the plate was shaken at 350 rpm for 30 min. Relative activity (in percent (%)) was assessed by measuring insulin receptor phosphorylation levels in the supernatant after cell lysis and fitting a curve to the data using nonlinear regression in Graphpad Prism 5 software. Related assays were also used, in which the blank solution also contained 1.5% HSA to simulate physiological conditions. Changes in the phosphorylation levels of the insulin-activated insulin receptors of the invention were detected as an indirect reflection of the albumin binding activity.

normal C57BL/6 mice = assay: Hypoglycemic effect, single subcutaneous administration to normal C57BL/6 mice; assay type: in vivo; design: blood glucose: unit not given here; details: for blood glucose / effective blood glucose control time / time after administration at which blood glucose reached the lowest level / time after administration at which blood glucose returned to normal: Degludec 200 nmol/Kg, others 1400 nmol/Kg; for blood glucose: Mean ± SEM, n = 6; for blood glucose compared with the control group: 1 h after single S.C. administration
Procedure: SPF grade C57BL/6 mice were reared in a suitable rearing box in a barrier environment, with a rearing temperature of 20-26° C., a humidity of 40-70%, a time between day and night of 12 h/12 h, and the mice had free access to standard food and autoclaved sterilization water. After a 3-day quarantine period and a 2-day acclimation period, random blood glucose was measured and mice were weighed. Mice were divided into 6 groups according to random blood glucose and body weight.
Single subcutaneous administration (S.C.) was used to administer the corresponding vehicle or drug. The control group was administered the vehicle PBS without fasting during the whole process, and the animals were allowed to eat and drink freely. Random blood glucose values of C57 mice were measured before administration and at 0.25, 0.5, 1, 2, 4, 6, 8, 10, 24, 48, 54, 72 and 96 hours after administration.
(§1) All raw data were entered into Excel files and expressed as Mean±SEM. Statistical analysis of data was performed using Graphpad Prism 7.0 software, one-way or two-way ANOVA comparison method, and P<0.05 was used as the criterion for significant differences.

[1] = system: STZ-induced type I diabetes mellitus (T1DM) C57BL/6 mice; assay: Hypoglycemic effect, repeated administration (four times) to STZ-induced T1DM C57BL/6 mice (Example 5); assay type: in vivo; design: key to random blood glucose: random blood glucose in mmol/L, Mean±SEM; details: for random blood glucose: 1400 nmol/Kg S.C. four times
Procedure: SPF grade C57BL/6 mice were reared in a suitable rearing box in a barrier environment, with a rearing temperature of 20-26° C., a humidity of 40-70%, a time between day and night of 12 h/12 h, and the mice had free access to standard food and autoclaved sterilization water. After a 3-day quarantine period and a 2-day acclimation period, the mice were fasted for 12 h, and the mice were injected intraperitoneally with streptozotocin solution (STZ, 13 mg/mL, in citrate buffer) or citrate buffer at 130 mg/kg (control group). 3 Days and 7 days after administration of streptozotocin, random blood glucose and fasting blood glucose were detected, and the random blood glucose value above 25 mmol/L and fasting blood glucose value above 11.1 mmol/L were selected as T1DM model mice for follow-up experiments. On the day before administration, random blood glucose was monitored and mice were weighed. Mice were divided into 4 groups according to random blood glucose and body weight.
Subcutaneous administration (S.C.) was used to administer the corresponding vehicle or drug, once every 4-5 days, for a total of 4 administrations. During the experiment, the animals were allowed to eat and drink water freely. The random blood glucose before the first administration, and 0.25, 0.5, 1, 2, 4, 6, 8, 10, 24, 48, 72, and 96 h after administration were assessed, as well as the random blood glucose before the second, third and fourth administration, and 1, 2, 4, 6, 8, 24, 48, 72, 96 and 120 h after administration.
as §1

[2] = rat, in vivo, iv, 10 nmol/kg
[3] = rat, in vivo, sc, 10 nmol/kg
[4] = mouse, in vivo, sc, 10 nmol/kg
[5] = 0 h (before administration), single S.C.

T1 sequence (P06213 28-758 limits assumed): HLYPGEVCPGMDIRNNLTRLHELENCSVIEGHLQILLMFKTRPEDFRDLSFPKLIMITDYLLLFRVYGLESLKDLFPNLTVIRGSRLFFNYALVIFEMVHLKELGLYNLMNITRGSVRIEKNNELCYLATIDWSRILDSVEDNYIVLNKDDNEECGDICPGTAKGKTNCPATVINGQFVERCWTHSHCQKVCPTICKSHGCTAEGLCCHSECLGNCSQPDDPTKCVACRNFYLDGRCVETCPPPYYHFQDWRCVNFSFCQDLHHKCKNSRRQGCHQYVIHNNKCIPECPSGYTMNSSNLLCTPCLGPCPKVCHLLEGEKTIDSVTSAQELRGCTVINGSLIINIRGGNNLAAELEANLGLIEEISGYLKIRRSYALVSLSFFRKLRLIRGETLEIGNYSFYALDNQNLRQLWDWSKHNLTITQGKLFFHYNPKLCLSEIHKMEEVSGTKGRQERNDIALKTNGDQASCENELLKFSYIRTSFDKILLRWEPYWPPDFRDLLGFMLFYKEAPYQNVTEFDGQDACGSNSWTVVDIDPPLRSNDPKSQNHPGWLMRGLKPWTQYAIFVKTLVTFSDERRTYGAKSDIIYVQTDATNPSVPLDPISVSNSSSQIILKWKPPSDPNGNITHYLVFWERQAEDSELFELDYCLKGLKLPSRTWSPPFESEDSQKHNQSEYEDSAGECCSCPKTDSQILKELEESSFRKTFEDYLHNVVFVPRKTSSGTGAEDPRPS
T1 sequence (P06213 763-1382 partner limits assumed): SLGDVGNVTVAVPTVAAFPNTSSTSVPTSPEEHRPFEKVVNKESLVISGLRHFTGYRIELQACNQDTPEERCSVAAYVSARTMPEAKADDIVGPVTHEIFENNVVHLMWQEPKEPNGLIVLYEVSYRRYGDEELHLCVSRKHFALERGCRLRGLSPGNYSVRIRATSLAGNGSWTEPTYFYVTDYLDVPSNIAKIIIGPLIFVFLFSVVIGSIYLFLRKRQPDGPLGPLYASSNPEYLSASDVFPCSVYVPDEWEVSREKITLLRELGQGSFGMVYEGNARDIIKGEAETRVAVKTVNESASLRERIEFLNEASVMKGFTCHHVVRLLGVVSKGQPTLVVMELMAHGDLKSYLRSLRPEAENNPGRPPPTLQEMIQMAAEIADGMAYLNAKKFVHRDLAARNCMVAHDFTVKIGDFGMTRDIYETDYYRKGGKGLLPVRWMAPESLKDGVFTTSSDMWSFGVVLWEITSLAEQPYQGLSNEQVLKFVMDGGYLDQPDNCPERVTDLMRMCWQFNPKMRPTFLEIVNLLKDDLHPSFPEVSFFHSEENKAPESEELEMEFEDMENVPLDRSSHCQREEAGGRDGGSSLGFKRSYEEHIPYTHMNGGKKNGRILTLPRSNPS

| Substance | EC50 (insulin receptor B; 0% HSA) | Relative HI activity (insulin receptor B; 0% HSA) | EC50 (insulin receptor B; 1.5% HSA) | blood glucose (normal C57BL/6 mice; [5]) | blood glucose (normal C57BL/6 mice; 0.25 h after single S.C.) | blood glucose (normal C57BL/6 mice; 0.5 h after single S.C.) | blood glucose compared with the control group (normal C57BL/6 mice) | blood glucose (normal C57BL/6 mice; 1 h after single S.C.) | blood glucose (normal C57BL/6 mice; 2 h after single S.C.) | blood glucose (normal C57BL/6 mice; 4 h after single S.C.) | blood glucose (normal C57BL/6 mice; 6 h after single S.C.) | blood glucose (normal C57BL/6 mice; 8 h after single S.C.) | blood glucose (normal C57BL/6 mice; 10 h after single S.C.) | blood glucose (normal C57BL/6 mice; 24 h after single S.C.) | blood glucose (normal C57BL/6 mice; 48 h after single S.C.) | blood glucose (normal C57BL/6 mice; 72 h after single S.C.) | blood glucose (normal C57BL/6 mice; 96 h after single S.C.) | effective blood glucose control time (normal C57BL/6 mice; single S.C.) | time after administration at which blood glucose reached the lowest level (normal C57BL/6 mice; single S.C.) | time after administration at which blood glucose returned to normal (normal C57BL/6 mice; single S.C.) | further results |
| --- | --- | --- | --- | --- | --- | --- | --- | --- | --- | --- | --- | --- | --- | --- | --- | --- | --- | --- | --- | --- | --- |
| insulin degludec [reference compound] | 4.55 nM | 27.07% | 20.6 nM | 7.8 ± 0.8 | 6.5 ± 1.1 | 5.0 ± 0.4 | decreased significantly | 4.7 ± 1.1 | 4.4 ± 1.3 | 5.4 ± 0.6 | 5.4 ± 1.2 | 5.8 ± 0.8 | 5.7 ± 0.9 | 8.3 ± 0.9 | 8.0 ± 0.3 | 8.0 ± 0.8 | 7.9 ± 0.3 | 24 h | 2 h | 24 h | Relative 0% HSA activity (insulin receptor B): 22.10%; Relative HI activity (insulin receptor B; 1.5% HSA): 12.59% |
| A14E, B16E, B25H, B29K (N^ε-eicosanedioyl-gGlu-2xOEG), DesB30 human insulin analog [Insulin-a1, reference compound] | 230 nM | 0.54% | 5020 nM | 7.8 ± 1.1 | 8.8 ± 1.4 | 6.6 ± 0.7 | decreased significantly | 5.6 ± 0.7 | 4.4 ± 0.7 | 3.6 ± 0.7 | 3.8 ± 0.4 | 3.6 ± 0.7 | 3.4 ± 0.7 | 2.9 ± 0.7 | 4.9 ± 1.5 | 7.3 ± 1.3 | 7.8 ± 0.6 | 72 h | 24 h | 48 h | Relative 0% HSA activity (insulin receptor B): 4.58%; Relative HI activity (insulin receptor B; 1.5% HSA): 0.05%; time after administration at which blood glucose reached the lowest level ([1]; 1400 nmol/Kg S.C., Insulin-a1 each administration, Insulin-a3 first and second administrations): 24 h; time after administration at which blood glucose reached the normal level ([1]; 1400 nmol/Kg S.C., after each administration): 72 h; random blood glucose ([1]; Day 0 (1st administration)): 33.3 ± 0.1; random blood glucose ([1]; Day 1): 22.5 ± 9.6; random blood glucose ([1]; Day 4 (2nd administration)): 31.1 ± 2.3; random blood glucose ([1]; Day 5): 15.6 ± 6.6; random blood glucose ([1]; Day 9 (3rd administration)): 28.4 ± 4.9; random blood glucose ([1]; Day 10): 12.2 ± 7.9; random blood glucose ([1]; Day 14 (4th administration)): 28.4 ± 5.9; random blood glucose ([1]; Day 18): 26.2 ± 5.7; time the effective glucose control effect can be maintained ([1]; repeated administration, C57BL6 mice modeled by STZ): 3 days/time; AUClast [2]: 7550 ng·h/mL; T1/2 [2]: 15.3 ± 4.8 h; AUClast [3]: 10300 ng·h/mL; MRTINF_obs [3]: 34.1 h; T1/2 [3]: 21 h; AUClast [4]: 10000 ng·h/mL; T1/2 [4]: 14.3 h |
| A14E, B16E, B25H, B29K(N(ε)-COOH(CH2)16CO-L-Lys-CO(CH2)2CO—(OEG)2), desB30 human insulin analog [Insulin-a4] | – | – | – | 8.0 ± 1.3 | 9.0 ± 1.9 | 6.2 ± 1.6 | decreased significantly | 5.0 ± 0.5 | 4.8 ± 0.5 | 3.9 ± 0.5 | 3.8 ± 1.1 | 3.2 ± 0.6 | 3.0 ± 0.6 | 5.3 ± 1.8 | 8.7 ± 0.9 | 8.0 ± 0.9 | 7.9 ± 1.1 | 48 h | 10 h | 48 h | – |
